Laboratory results from patent US7078209B2, “CAK inhibitors and uses thereof” (Vertex Pharmaceuticals Incorporated, priority 2001, dated 2006).

Biological target: CDK activating kinase (CAK) from Candida albicans (Candida albicans, UniProt A0A1D8PH53)
Experiment: Candida albicans CAK kinase assay: phosphorylation of human CDK2 with 33P labeled ATP
Assay type: biochemical
Details: 2 nM CAK, 0.3 μM CDK2·FSBA, 10 μM ATP, room temperature, pH 7.5
Protocol: Activity of CDK activating kinase (CAK) from Candida albicans was measured by following the phosphorylation of human cyclin dependent kinase 2 (CDK 2) with ^33P labeled ATP. Reactions were carried out at room temperature in 100 mM HEPES, pH 7.5, 1 mM MgCl2, 100 mM NaCl and 1 mM DTT. Final concentrations of CAK and CDK2 were 2 nM and 300 nM, respectively. The CDK-2 substrate was inactivated with 5′ fluorosulfonylbenzoyladenosine (FSBA) to oblate its intrinsic ATPase activity. Test compounds in DMSO (final concentrations 30 μM, 1.5% DMSO) were first incubated with CAK and CDK2 for 40 minutes, then the reaction initiated by addition of ^33P ATP (final concentration 10 μM, specific activity=[…], NEN, Boston, Mass.). The reaction was allowed to proceed for 40 minutes and quenched by addition of 10% TCA containing 250 mM ATP. The quenched reaction was harvested onto GF/C glass fiber filter plates (Packard, Meriden, Conn.) using a Tomtec 9600 cell harvester (Tomtec, Hamden, Conn.), washed with 5% TCA and water. The plates were then treated with 50 μl of scintillation fluid and counted using a Packard top count (Packard, Meriden, Conn.). Ki values for inhibitory compounds were determined using the same assay at a series of compound concentrations.
• 100 mM HEPES, pH 7.5 • 1 mM MgCl2 • 100 mM NaCl • 1 mM DTT • 2 nM CAK • 0.3 μM CDK2·FSBA • 1.5% DMSO (compounds are dissolved in DMSO) • 10 μM ATP (specific activity·1.25e9 μCi/mol ATP)

Chain of CDK activating kinase (CAK) from Candida albicans (A0A1D8PH53 entry or part of it): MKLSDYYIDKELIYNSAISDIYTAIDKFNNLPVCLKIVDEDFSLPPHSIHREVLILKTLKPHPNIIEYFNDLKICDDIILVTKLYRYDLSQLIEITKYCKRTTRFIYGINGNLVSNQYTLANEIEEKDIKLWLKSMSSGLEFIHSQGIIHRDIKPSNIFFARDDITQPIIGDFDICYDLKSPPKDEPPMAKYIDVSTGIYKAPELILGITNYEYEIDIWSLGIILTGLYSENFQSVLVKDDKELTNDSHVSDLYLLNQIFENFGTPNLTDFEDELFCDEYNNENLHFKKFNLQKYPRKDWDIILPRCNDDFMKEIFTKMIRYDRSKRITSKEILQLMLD

How did the Ki turn out when `N#Cc1c(N)c(C(=O)c2cccc(I)c2)n2ccccc12` [Compound 1] was run?
The Ki was 60 nM.

How did the Ki turn out when `COc1cccc(C(=O)c2c(N)c(C#N)c3ccccn23)c1` [Compound 2] was run?
The Ki was 210 nM.

For `N#Cc1c(N)c(C(=O)c2cccc(Cl)c2)n2ccccc12` [Compound 3], which Ki is on record?
Its Ki is 290 nM.

Which Ki does the source give for `N#Cc1c(N)c(C(=O)c2ccc3ccccc3c2)n2ccccc12` [Compound 4] here?
The Ki was 540 nM.

With `N#Cc1c(N)c(C(=O)c2ccc(Cl)c(Cl)c2)n2ccccc12` [Compound 5] as the molecule, how does the Ki read?
Its Ki is 640 nM.

`N#Cc1c(N)c(C(=O)c2ccc(F)cc2)n2ccccc12` [Compound 6] was tested. Which Ki did it give?
Its Ki is 880 nM.

Which Ki does the source give for `COc1ccccc1C(=O)c1c(N)c(C#N)c2ccccn12` [Compound 7] here?
Its Ki is 940 nM.

How did the Ki turn out when `N#Cc1c(N)c(C(=O)c2ccc(F)c(F)c2)n2ccccc12` [Compound 8] was run?
The Ki was 1000 nM.

How did the Ki turn out when `N#Cc1c(N)c(C(=O)c2ccc(Cl)cc2)n2ccccc12` [Compound 9] was run?
Its Ki is 1300 nM.

`N#Cc1c(N)c(C(=O)c2ccc(OC(F)(F)F)cc2)n2ccccc12` [Compound 10] was tested. Which Ki did it give?
Its Ki is 1500 nM.

`N#Cc1c(N)c(C(=O)c2ccc(Br)cc2)n2ccccc12` [Compound 11] was tested. Which Ki did it give?
Its Ki is 1900 nM.

For `COc1ccc(C(=O)c2c(N)c(C#N)c3ccccn23)cc1` [Compound 12], which Ki is on record?
Its Ki is 2400 nM.

Which Ki does the source give for `CC(=O)Nc1c(C#N)c2ccccn2c1C(=O)c1ccc(F)cc1` [Compound 13] here?
The Ki was > 30000 nM.
